# “Also recorded” adds a separate entry of the source.
# What was measured:
# Assay type in all cases: cell-based, human
# [1] = system: donor cardiomyocytes; test: Force measurements (Fpassive) in single demembranated donor cardiomyocytes; settings: SL 1.8-2.4 μm; for Fpassive (Fpassive-SL curve) after alkaline phosphatase vs baseline: AP 2000 U/mL, 40 minutes at 20° C.
# Description: (§1) Force measurements were performed on single demembranated cardiomyocytes (n ranged from 9 to 15 for each group and experimental protocol) as described previously.^4, 5 Cardiomyocytes were isolated from donor, AS, and DCM hearts. Briefly, samples were thawed in relaxing solution (in mmol/L: free Mg, 1; KCl, 100; EGTA, 2; Mg-ATP, 4; imidazole, 10; pH 7.0), mechanically disrupted and incubated for 5 minutes in relaxing solution supplemented with 0.5% TRITON® X-100. The cell suspension was washed 5 times in relaxing solution. Single cardiomyocytes were selected under an inverted microscope and attached with silicone adhesive between a force transducer and a piezoelectric motor. Cardiomyocyte Fpassive was measured in relaxing buffer at room temperature within a sarcomere length (SL) range between 1.8 and 2.4 μm. Force values were normalized to cardiomyocyte cross-sectional area calculated from the diameter of the cells, assuming a cylindrical shape. As a test of cell viability, each cardiomyocyte was also transferred from relaxing to maximally activating solution (pCa4.5), at which isometric force developed. Once a steady state force was reached, the cell was shortened within 1 ms to 80% of its original length to determine baseline force. Only cells developing active forces >20 kN/m^2 were included in the analysis. Thereafter, cardiomyocytes were incubated in relaxing solution supplemented with alkaline phosphatases (AP) (2000 U/mL; New England Biolabs), 6 mmol/L dithiothreitol (MP Biochemicals) for 40 minutes at 20° C. and Fpassive was measured again at SL 1.8-2.4 μm. Subsequently, cardiomyocytes were stretched to ˜2.6 μm SL, incubated in relaxing buffer with pH 6.6, and held in the stretched state for 15 minutes (prestretch). […] Finally, the pH 6.6 buffer was supplemented with recombinant human α-B crystallin at 0.1 mg/ml and Fpassive was measured in the presence of α-B crystallin again at SL 1.8-2.4 μm.
# [2] = system: AS cardiomyocytes; test: Force measurements (Fpassive) in single demembranated aortic stenosis (AS) cardiomyocytes; settings: for Fpassive (Fpassive-SL curve) after alkaline phosphatase vs baseline: AP 2000 U/mL, 40 minutes at 20° C.; for Fpassive (Fpassive-SL curve) after α-B crystallin vs AS baseline: single AS cardiomyocytes
# Description: Force measurements were performed on single demembranated cardiomyocytes (n ranged from 9 to 15 for each group and experimental protocol) as described previously.^4, 5 Cardiomyocytes were isolated from donor, AS, and DCM hearts. Briefly, samples were thawed in relaxing solution (in mmol/L: free Mg, 1; KCl, 100; EGTA, 2; Mg-ATP, 4; imidazole, 10; pH 7.0), mechanically disrupted and incubated for 5 minutes in relaxing solution supplemented with 0.5% TRITON® X-100. The cell suspension was washed 5 times in relaxing solution. Single cardiomyocytes were selected under an inverted microscope and attached with silicone adhesive between a force transducer and a piezoelectric motor. Cardiomyocyte Fpassive was measured in relaxing buffer at room temperature within a sarcomere length (SL) range between 1.8 and 2.4 μm. Force values were normalized to cardiomyocyte cross-sectional area calculated from the diameter of the cells, assuming a cylindrical shape. As a test of cell viability, each cardiomyocyte was also transferred from relaxing to maximally activating solution (pCa4.5), at which isometric force developed. Once a steady state force was reached, the cell was shortened within 1 ms to 80% of its original length to determine baseline force. Only cells developing active forces >20 kN/m^2 were included in the analysis. Thereafter, cardiomyocytes were incubated in relaxing solution supplemented with alkaline phosphatases (AP) (2000 U/mL; New England Biolabs), 6 mmol/L dithiothreitol (MP Biochemicals) for 40 minutes at 20° C. and Fpassive was measured again at SL 1.8-2.4 μm. Subsequently, cardiomyocytes were stretched to ˜2.6 μm SL, incubated in relaxing buffer with pH 6.6, and held in the stretched state for 15 minutes (prestretch). Thereafter, cardiomyocytes were returned to slack length and stabilized for 5 minutes before recording the Fpassive with an identical stretch protocol from SL 1.8-2.4 μm in the low pH buffer. Finally, the pH 6.6 buffer was supplemented with recombinant human α-B crystallin at 0.1 mg/ml and Fpassive was measured in the presence of α-B crystallin again at SL 1.8-2.4 μm.
# In a second set of experiments, single AS cardiomyocytes underwent either incubation at pH 6.6 alone or a prestretch in relaxing buffer with pH 6.6 to ˜2.6 μm SL, followed by the same stretch protocol from SL 1.8-2.4 μm.
# Finally, in a third set of experiments, Fpassive was measured in single AS cardiomyocytes from SL 1.8-2.4 μm before and after incubation with α-B crystallin, before and after incubation with α-B crystallin and a prestretch to ˜2.6 μm SL, and before and after incubation with α-B crystallin, a prestretch to ˜2.6 μm SL and incubation at pH 6.6.
# [3] = system: DCM cardiomyocytes; test: Force measurements (Fpassive) in single demembranated dilated cardiomyopathy (DCM) cardiomyocytes; settings: SL 1.8-2.4 μm; for Fpassive (Fpassive-SL curve) after alkaline phosphatase vs baseline: AP 2000 U/mL, 40 minutes at 20° C.
# Description: as §1
# [4] = after AP, prestretch to ~2.6 μm SL in pH 6.6, α-B crystallin 0.1 mg/ml
Molecule,Fpassive (Fpassive-SL curve) after alkaline phosphatase vs baseline [1],Fpassive (Fpassive-SL curve) after alkaline phosphatase vs baseline ([1]; listed as AP),"Fpassive (Fpassive-SL curve) after alkaline phosphatase vs baseline ([2]; AS cardiomyocytes, SL 1.8-2.4 μm)","Fpassive (Fpassive-SL curve) after alkaline phosphatase vs baseline ([2]; AS cardiomyocytes, SL 1.8-2.4 μm, listed as AP)",Fpassive (Fpassive-SL curve) after alkaline phosphatase vs baseline [3],Fpassive (Fpassive-SL curve) after alkaline phosphatase vs baseline ([3]; listed as AP),"Fpassive (Fpassive-SL curve) after α-B crystallin [1, 4]","Fpassive (Fpassive-SL curve) after α-B crystallin ([2]; AS cardiomyocytes, after AP, prestretch to ~2.6 μm SL in pH 6.6, α-B crystallin 0.1 mg/ml, SL 1.8-2.4 μm)","Fpassive (Fpassive-SL curve) after α-B crystallin vs AS baseline ([2]; α-B crystallin alone, no prior intervention (FIG. 6A), SL 1.8-2.4 μm)",Fpassive (Fpassive-SL curve) after α-B crystallin vs AS baseline ([2]; α-B crystallin and prestretch to ~2.6 μm SL alone (FIG. 6B)),"Fpassive (Fpassive-SL curve) after α-B crystallin vs AS baseline ([2]; α-B crystallin, prestretch to ~2.6 μm SL and pH 6.6 (FIG. 6C))","Fpassive (Fpassive-SL curve) after α-B crystallin [3, 4]"
alkaline phosphatase [reference compound],Fpassive significantly increased; also recorded: the Fpassive-SL curve shifted upward,shifts the diastolic Fpassive-SL relation upward in donor,the Fpassive-SL curve failed to shift,no significant change in the Fpassive-SL curve; also recorded: not in AS or DCM cardiomyocytes,the Fpassive-SL curve failed to shift,had no effect on the Fpassive-SL curve; also recorded: not in AS or DCM cardiomyocytes,,,,,,
"α-B crystallin: recombinant human α-B crystallin; small heat shock protein encoded by the CRYAB gene, SEQ ID NO:1 (protein, listed as Homo sapiens) MDIAIHHPWIRRPFFPFHSPSRLFDQFFGEHLLESDLFPTSTSLSPFYLRPPSFLRAPSWFDTGLSEMRLEKDRFSVNLDVKHFSPEELKVKVLGDVIEVHGKHEERQDEHGFISREFHRKYRIPADVDPLTITSSLSSDGVLTVNGPRKQVSGPERTIPITREEKPAVTAAPKK",,,,,,,Fpassive normalized again to baseline; also recorded: the curve returned to an intermediate position between baseline and AP; also recorded: coincides with the baseline diastolic Fpassive-SL relation of donor cardiomyocytes,lowered diastolic stiffness well below baseline values; also recorded: dropped Fpassive to a level significantly lower than baseline; also recorded: dropped to a position that was significantly lower than baseline and comparable to the baseline position of donor cardiomyocytes; also recorded: falls below the baseline diastolic Fpassive-SL relation in AS and DCM cardiomyocytes,shifted the diastolic Fpassive-SL relation downward; also recorded: decreased Fpassive significantly; also recorded: shifted the Fpassive-SL curve significantly downward compared to baseline,decreased Fpassive significantly as well; also recorded: yielded a similar result,decreased Fpassive significantly as well; also recorded: yielded a similar result,lowered diastolic stiffness well below baseline values; also recorded: Fpassive dropped to a level significantly below baseline; also recorded: fell to a position that was significantly below baseline and comparable to the baseline position of donor cardiomyocytes; also recorded: falls below the baseline diastolic Fpassive-SL relation in AS and DCM cardiomyocytes

# From patent US11504415B2, “Treatment of heart failure with preserved ejection fraction” (Stichting VUmc, priority 2016, dated 2022)
